{"source": "paper PMC6522912", "about": "“Evaluation of the published kinase inhibitor set to identify multiple inhibitors of bacterial ATP-dependent mur ligases” (Journal of Enzyme Inhibition and Medicinal Chemistry, 2019)", "key": {"human kinases": {"system": "human kinases", "settings": "over 200 kinase activity assays and 68 DSF assays; cited from earlier work"}, "[1]": {"assay": "Solubility observations in assay mixtures and NMR buffer", "type": "physicochemical", "settings": "NMR buffer, MurD:ligand molar ratio 1:8, 0.07 mM MurD"}, "E. coli MurC": {"biological_target": "E. coli MurC (Escherichia coli, UniProt P17952)", "sequence (P17952 whole entry)": "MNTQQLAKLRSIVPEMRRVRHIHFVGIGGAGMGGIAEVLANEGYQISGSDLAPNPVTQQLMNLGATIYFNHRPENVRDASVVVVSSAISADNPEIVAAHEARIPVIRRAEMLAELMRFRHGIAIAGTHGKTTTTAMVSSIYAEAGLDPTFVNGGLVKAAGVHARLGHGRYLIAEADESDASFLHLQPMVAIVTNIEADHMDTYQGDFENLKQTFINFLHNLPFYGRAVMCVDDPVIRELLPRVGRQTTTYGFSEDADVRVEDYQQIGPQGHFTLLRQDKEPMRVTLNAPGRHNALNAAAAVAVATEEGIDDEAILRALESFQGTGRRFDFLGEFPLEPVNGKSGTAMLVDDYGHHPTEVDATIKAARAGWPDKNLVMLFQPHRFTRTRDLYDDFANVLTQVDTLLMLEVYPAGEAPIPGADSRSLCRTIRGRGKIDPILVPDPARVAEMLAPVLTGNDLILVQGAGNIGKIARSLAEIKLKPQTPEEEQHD", "assay": "Malachite green inhibition assay, MurC", "type": "biochemical"}, "MurD": {"biological_target": "MurD (Escherichia coli, UniProt P14900)", "sequence (P14900 whole entry)": "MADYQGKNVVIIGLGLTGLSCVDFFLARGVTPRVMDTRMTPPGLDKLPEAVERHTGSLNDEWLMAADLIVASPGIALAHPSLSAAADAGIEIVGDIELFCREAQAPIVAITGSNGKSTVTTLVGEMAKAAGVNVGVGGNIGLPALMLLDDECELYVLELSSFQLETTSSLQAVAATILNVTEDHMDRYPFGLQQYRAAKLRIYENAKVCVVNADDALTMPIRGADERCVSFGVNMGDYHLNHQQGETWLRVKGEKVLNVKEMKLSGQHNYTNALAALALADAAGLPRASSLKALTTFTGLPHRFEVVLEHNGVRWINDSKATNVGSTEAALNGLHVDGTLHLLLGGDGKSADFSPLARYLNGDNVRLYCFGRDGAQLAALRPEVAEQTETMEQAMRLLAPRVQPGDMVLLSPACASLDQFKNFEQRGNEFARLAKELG", "assay": "1H/13C HSQC NMR study of ligand binding", "settings": "chemical shift perturbations, without and with 2 mM AMP-PCP", "method": "The nuclear magnetic resonance (NMR) spectra were recorded at 25 °C on a spectrometer (DirectDrive 800 MHz; Varian, Slovenian NMR centre at National Institute of Chemistry) equipped with a cryoprobe. The pulse sequences provided in the Varian BioPack library of pulse programmes was used. The samples were prepared in 90% H2O/10% DMSO-d6 buffer containing 20 mM HEPES, 7 mM (NH4)2SO4, 3.5 mM MgCl2, and 2 mM dithiothreitol, pH 7.2. Here, 0.07 mM MurD that was selectively labelled with ^13 C at the methyl groups of Ile (δ1 only), Val and Leu was used. The protein was titrated using compound 1 in MurD:ligand molar ratios of 0.5, 1, 2, 4 and 8, without and with 2 mM β,γ-methyleneadenosine 5'-triphosphate (AMP–PCP). […] The final concentration of DMSO-d6 was 12% (v/v). The variation of DMSO from 10 to 12% (v/v) affects the chemical shift perturbations by <0.02 ppm[31].\nThe heteronuclear single quantum coherence (HSQC) spectra for ^1H/^13C were acquired with 1024 data points in t2, 32 scans, 64 complex points in t1, and relaxation delay of 1 s. […] The spectra were processed and analysed with the Felix 2007 software package (Felix NMR Inc., Laboratory of Biomolecular Structure at National Institute of Chemistry). […] The combined ^1H/^13C chemical shift perturbations (Δδ) were calculated from the ^1H and ^13C chemical shift perturbations using Equation (1)[32]: (1) Δδ=((Δδ^1H)^2+(0.252×Δδ^13C)^2)^1/2. […]"}}}
{"smiles": "Cc1cc(-c2ccco2)cc(C)c1/C=C/c1cncc(-c2nn[nH]n2)c1", "note": "[Compound 1]", "values": [{"measurement": "activity at human kinases", "setting": "human kinases", "result": "no appreciable activity"}, {"measurement": "solubility", "setting": "[1]", "result": "not completely dissolved"}, {"measurement": "remaining activity at 100 µM", "setting": "E. coli MurC; 0.25 h, Table S1, PKIS screening, read-out: RA [%] at 100 µM MurC", "result": 70, "unit": "%"}, {"measurement": "IC50", "setting": "E. coli MurC; Table 1, read-out: MurC IC50", "result": 368, "unit": "µM"}, {"measurement": "RA (%) MurC", "setting": "E. coli MurC; Table S3, aza stilbene compounds", "result": 70, "unit": "%"}, {"measurement": "MurC RA [%]", "setting": "E. coli MurC; residual activity at 100 µM compound, Table 1", "result": 70, "unit": "%"}, {"measurement": "binding site on MurD", "setting": "MurD", "result": "binds to the D-Glu binding site"}]}
